Data on 32 compounds can be found in patent US20140088052A1, “CHALCONE DERIVATIVES AS NRF2 ACTIVATORS” (THE JOHNS HOPKINS UNIVERSITY, priority 2011, published 2014).

The test system of the assay is Nrf2. Put plainly: Expression of Nrf2-regulated genes GCLM and NQO1 by qRT-PCR in Beas-2B cells (screen). In kind it is cell-based, human. The conditions noted are these: 16 h, DMSO = 1.0 (Table 2); for fold induction at 10 µM: Homo sapiens. Here is the method:
To investigate the potency of the presently disclosed chalcone derivatives to activate Nrf2, the expression of antioxidant genes, GCLM and NADPH-NQO1, two well characterized transcriptional targets of Nrf2, were measured as surrogate markers. By “marker” is meant any protein or polynucleotide having an alteration in expression level or activity that is associated with a disease, disorder, or condition. It has been previously shown that oxidants or small molecule activators of Nrf2 increase GCLM and NQO1 in cells or tissues of wild-type, but not in Nrf2-deficient mice. Osburn, W. O., et al., Genetic or pharmacologic amplification of Nrf2 signaling inhibits acute inflammatory liver injury in mice. Toxicol. Sci. 2008, 104(1), 218-227. […]
RNA was isolated and gene expression was measured after 16 h.
Total RNA was extracted from cells/tissue using Qiagen RNeasy kit (Qiagen Corporation, Valencia, Calif.) and reverse transcription was performed by using random hexamers and MultiScribe reverse transcriptase according to the manufacturer's recommendations (Applied Biosystems, Foster City, Calif., USA). Quantitative real-time RT-PCR analyses of Nrf2, NQO1, HO1, and GCLM were performed by using Assay-on-Demand primers and probe sets from Applied Biosystems. Assays were performed using the ABI 7000 Taqman system (Applied Biosystems, Foster City, Calif.). β-actin was used for normalization.
(In general: Quantitative PCR measures a nucleic acid by following its amplification.)

Setting [1] is: BEAS-2B, read-out: Relative Fold Change GCLM.
[2] abbreviates: BEAS-2B, read-out: Relative Fold Change NQO1.
The mark [3] stands for this setting: read-out: Relative Fold Change GCLM.
The mark [4] stands for this setting: read-out: Relative Fold Change NQO1.

Structures are written as SMILES. Where two headings read alike, the source gives them in different places.

Take `COc1ccccc1C(=O)/C=C/c1ccccc1` [Compound 1b, (E)-1-(2-methoxyphenyl)-3-phenylprop-2-en-1-one]: the fold induction at 10 µM by setting is: under setting [1], 3.6; under setting [2], 3.2.

As for `COc1cccc(C(=O)/C=C/c2ccccc2)c1` [Compound 1c, (E)-1-(3-methoxyphenyl)-3-phenylprop-2-en-1-one], the fold induction at 10 µM is 1.5 under setting [1] and 2.4 under setting [2].

Consider `COc1ccc(C(=O)/C=C/c2ccccc2)cc1` [Compound 1d, (E)-1-(4-methoxyphenyl)-3-phenylprop-2-en-1-one], for which the fold induction at 10 µM by setting is: under setting [1], 1.9; under setting [2], 2.8.

Turning to `COc1ccc(C(=O)/C=C/c2ccccc2)c(OC)c1` [Compound 1e, (E)-3-phenyl-1-(2,4-dimethoxyphenyl)prop-2-en-1-one], the fold induction at 10 µM is 2.7 under setting [3] and 2.8 under setting [4].

As to `COc1cccc(OC)c1C(=O)/C=C/c1ccccc1` [Compound 1f, (E)-3-phenyl-1-(2,6-dimethoxyphenyl)prop-2-en-1-one], the fold induction at 10 µM was determined as 2.5 under setting [1] and 1.9 under setting [2].

As to `COc1ccc(OC)c(C(=O)/C=C/c2ccccc2)c1` [Compound 1g, (E)-3-phenyl-1-(2,5-dimethoxyphenyl)prop-2-en-1-one], the fold induction at 10 µM is, setting by setting: under setting [1], 3; under setting [2], 2.6.

`COc1ccc(C(=O)/C=C/c2ccccc2)cc1OC` [Compound 1h, (E)-3-phenyl-1-(3,4-dimethoxyphenyl)prop-2-en-1-one]: the fold induction at 10 µM is, setting by setting: under setting [3], 2.3; under setting [4], 2.5.

`COc1cc(OC)cc(C(=O)/C=C/c2ccccc2)c1` [Compound 1i, (E)-3-phenyl-1-(3,5-dimethoxyphenyl)prop-2-en-1-one]: the fold induction at 10 µM by setting is: under setting [1], 3; under setting [2], 2.4.

In the case of `COc1cc(C(=O)/C=C/c2ccccc2)cc(OC)c1OC` [Compound 1j, (E)-3-phenyl-1-(3,4,5-trimethoxyphenyl)prop-2-en-1-one], the fold induction at 10 µM was 0.7 under setting [1] and 0.7 under setting [2].

Turning to `COc1ccc(C(=O)/C=C/c2ccccc2)c(OC)c1OC` [Compound 1k, (E)-3-phenyl-1-(2,3,4.trimethoxyphenyl)prop-2-en-1-one], where the note is “10 μM”, the “Relative Fold Change GCLM” value worked out at 2.4 and the “Relative Fold Change NQO1” value was determined as 2.4.

Consider `COc1cc(OC)c(C(=O)/C=C/c2ccccc2)c(OC)c1` [Compound 1l, (E)-3-phenyl-1-(2,4,6-trimethoxyphenyl)prop-2-en-1-one], for which the fold induction at 10 µM was determined as 3.1 under setting [1] and 1.8 under setting [2].

In the case of `COc1ccc(OC)c(C(=O)/C=C/c2ccccc2C(F)(F)F)c1` [Compound 2g, (E)-1-(2,5-dimethoxyphenyl)-3-(2-(trifluoromethyl)phenyl)prop-2-en-1-one], the fold induction at 10 µM reads like this: under setting [1], 4.4; under setting [2], 2.7.

Regarding `COc1ccc(C(=O)/C=C/c2ccccc2C(F)(F)F)cc1OC` [Compound 2h, (E)-1-(3,4-dimethoxyphenyl)-3-(2-(trifluoromethyl)phenyl)prop-2-en-1-one], the fold induction at 10 µM under setting [1] worked out at 4.3 and the fold induction at 10 µM under setting [2] was 2.7.

As for `COc1cc(C(=O)/C=C/c2ccccc2C(F)(F)F)cc(OC)c1OC` [Compound 2j, (E)-1-(3,4,5,S.trimethoxyphenyl)-3-(2-(trifluoromethyl)phenyl)prop-2-en-1-one], the fold induction at 10 µM is, setting by setting: under setting [1], 3; under setting [2], 3.1.

On to `O=C(/C=C/c1cccc(C(F)(F)F)c1)c1ccccc1` [Compound 3a, (E)-1-phenyl-3-(3-(trifluoromethyl)phenyl)prop-2-en-1-one], for which the fold induction at 10 µM by setting is: under setting [1], 3.1; under setting [2], 2.8.

For the compound `COc1ccccc1C(=O)/C=C/c1cccc(C(F)(F)F)c1` [Compound 3b, (E)-1-(2-methoxyphenyl)-3-(3-(trifluoromethyl)phenyl)prop-2-en-1-one], the fold induction at 10 µM is, setting by setting: under setting [1], 3.9; under setting [2], 2.9.

`COc1ccc(C(=O)/C=C/c2cccc(C(F)(F)F)c2)cc1` [Compound 3d, (E)-1-(4-methoxyphenyl)-3-(3-(trifluoromethyl)phenyl)prop-2-en-1-one]: the fold induction at 10 µM stood at 2.7 under setting [1] and 2.8 under setting [2].

Turning to `COc1ccc(C(=O)/C=C/c2cccc(C(F)(F)F)c2)c(OC)c1` [Compound 3e, (E)-1-(2,4-dimethoxyphenyl)-3-(3-(trifluoromethyl)phenyl)prop-2-en-1-one], the fold induction at 10 µM runs as follows: under setting [1], 4.6; under setting [2], 4.

Consider `COc1cccc(OC)c1C(=O)/C=C/c1cccc(C(F)(F)F)c1` [Compound 3f, (E)-1-(2,6-dimethoxyphenyl)-3-(3-(trifluoromethyl)phenyl)prop-2-en-1-one], for which the fold induction at 10 µM under setting [1] turned out to be 1.8 and the fold induction at 10 µM under setting [2] is 0.6.

As for `COc1ccc(OC)c(C(=O)/C=C/c2cccc(C(F)(F)F)c2)c1` [Compound 3g, (E)-1-(2,5-dimethoxyphenyl)-3-(3-(trifluoromethyl)phenyl)prop-2-en-1-one], the fold induction at 10 µM was 1.8 under setting [1] and 0.8 under setting [2].

Consider `COc1ccc(C(=O)/C=C/c2cccc(C(F)(F)F)c2)cc1OC` [Compound 3h, (E)-1-(3,4-dimethoxyphenyl)-3-(3-(trifluoromethyl)phenyl)prop-2-en-1-one], for which the fold induction at 10 µM reads like this: under setting [1], 4.1; under setting [2], 2.9.

Turning to `COc1cc(C(=O)/C=C/c2cccc(C(F)(F)F)c2)cc(OC)c1OC` [Compound 3j, (E)-1-(3,4,5-trimethoxyphenyl)-3-(3-(trifluoromethyl)phenyl)prop-2-en-1-one], the fold induction at 10 µM by setting is: under setting [1], 1.7; under setting [2], 0.8.

Consider `COc1ccc(C(=O)/C=C/c2cccc(C(F)(F)F)c2)c(OC)c1OC` [Compound 3k, (E)-1-(2,3,4-trimethoxyphenyl)-3-(3-(trifluoromethyl)phenyl)prop-2-en-1-one], for which the fold induction at 10 µM is 3.6 under setting [1] and 3.2 under setting [2].

Regarding `COc1cc(OC)c(C(=O)/C=C/c2cccc(C(F)(F)F)c2)c(OC)c1` [Compound 3l, (E)-1-(2,4,6-trimethoxyphenyl)-3-(3-(trifluoromethyl)phenyl)prop-2-en-1-one], the fold induction at 10 µM under setting [1] is 1.4 and the fold induction at 10 µM under setting [2] was determined as 0.7.

For `O=C(/C=C/c1ccc(C(F)(F)F)cc1)c1ccccc1` [Compound 4a, (E)-1-phenyl-3-(4-(trifluoromethyl)phenyl)prop-2-en-1-one], the fold induction at 10 µM is, setting by setting: under setting [1], 3.31; under setting [2], 2.9.

As to `COc1cccc(C(=O)/C=C/c2ccc(C(F)(F)F)cc2)c1` [Compound 4c, (E)-1-(3-methoxyphenyl)-4-(4-(trifluoromethyl)phenyl)prop-2-en-1-one], the fold induction at 10 µM came to 2.9 under setting [1] and 3.1 under setting [2].

In the case of `COc1cccc(OC)c1C(=O)/C=C/c1ccc(C(F)(F)F)cc1` [Compound 4f, (E)-1-(2,6-dimethoxyphenyl)-3-(4-(trifluoromethyl)phenyl)prop-2-en-1-one], the fold induction at 10 µM reads like this: under setting [1], 1.4; under setting [2], 0.6.

For `COc1ccc(C(=O)/C=C/c2ccc(C(F)(F)F)cc2)cc1OC` [Compound 4h], the fold induction at 10 µM is, setting by setting: under setting [1], 3.5; under setting [2], 2.7.

In the case of `COc1cc(C(=O)/C=C/c2ccc(C(F)(F)F)cc2)cc(OC)c1OC` [Compound 4i], the fold induction at 10 µM stood at 4.1 under setting [1] and 3.7 under setting [2].

Consider `COc1cc(OC)c(C(=O)/C=C/c2ccc(C(F)(F)F)cc2)c(OC)c1` [Compound 4k], for which the fold induction at 10 µM under setting [1] worked out at 2.4 and the fold induction at 10 µM under setting [2] is 2.4.

As to `COc1ccc(OC)c(C(=O)/C=C/c2ccccc2[N+](=O)[O-])c1` [Compound 5g], the fold induction at 10 µM is, setting by setting: under setting [1], 1.7; under setting [2], 0.7.

Turning to `COc1ccc(C(=O)/C=C/c2ccccc2[N+](=O)[O-])c(OC)c1OC` [Compound 5k, (E)-1-(2,3,4-trimethoxyphenyl)-3-(2-nitrophenyl)prop-2-en-1-one], the fold induction at 10 µM runs as follows: under setting [1], 2.9; under setting [2], 3.3.
